Key:
[1] = in the body; no source or species given; cited from earlier work
LoVo tumor cells = assay: Anti-tumoral efficacy in the colorectal adenocarcinoma xenograft model LoVo; assay type: in vivo, NCr nu/nu mice
Protocol: Study Design: A total of 50 female NCr nu/nu mice (10 per group) at the age of 8-12 weeks were injected with 1×10^7 LoVo tumor cells in 50% Matrigel sc in flank. After seven days they were administered intraperitoneal injections according to the schedule in table 2. Animals were monitored individually. The endpoint of the experiment was a tumor weight of 1000 mm^3 or 75 days, whichever came first. Responders could be followed longer. When the endpoint was reached, the animals were euthanized. Body weight (g) and tumor volume (mm^3) was measured on days 1, 2, 3, 4, 5, 7, 11, 14, 18, 21, 25, 28, 32, 35, 39, 42, 46, 49, 53, 56, 60, 63, 67, 70 and 74.

| SMILES | half life [1] | Median tumor volume over time (FIG. 2), in words (LoVo tumor cells; LoVo xenograft, days 1-74) | Time to endpoint, Kaplan-Meier plot (FIG. 3), in words (LoVo tumor cells; endpoint: tumor weight of 1000 mm^3 or 75 days) |
| --- | --- | --- | --- |
| CN1c2c(nc(N)[nH]c2=O)NCC1CNc1ccc(C(=O)N[C@@H](CCC(=O)O)C(=O)O)cc1 (stereo partly shown) [methyl-THF, 5-methyltetrahydrofolate] | approximately 5 hours |  |  |
| Nc1nc2c(c(=O)[nH]1)N1CN(c3ccc(C(=O)N[C@@H](CCC(=O)O)C(=O)O)cc3)CC1CN2 (stereo partly shown) [methylene-THF, 5,10-methylene tetrahydrofolate] | approximately 20 min | enhances the anti-tumor growth effect of cetuximab | enhancing the beneficial effect of cetuximab |

— patent publication US9675617B2, “Tetrahydrofolates in combination with EGFR-inhibitors” (ISOFOL MEDICAL AB, priority 2012, dated 2017)
